From ChEMBL document CHEMBL1140887, “Synthesis of novel 1,4-benzoxazin-3-one derivatives as inhibitors against tyrosine kinases” (Bioorg Med Chem, 2009)

Assays:
[1] = target: Tyrosine-protein kinase ABL1 (Homo sapiens, UniProt P00519); assay: Inhibition of ABL expressed in baculovirus system by ELISA
[2] = target: T1, Vascular endothelial growth factor receptor 2 (Homo sapiens, UniProt P35968); assay: Inhibition of KDR expressed in baculovirus system at 4 ug/ml by ELISA
[3] = target: T1, Vascular endothelial growth factor receptor 2; assay: Inhibition of KDR expressed in baculovirus system by ELISA

Tyrosine-protein kinase ABL1, sequence (P00519 whole entry): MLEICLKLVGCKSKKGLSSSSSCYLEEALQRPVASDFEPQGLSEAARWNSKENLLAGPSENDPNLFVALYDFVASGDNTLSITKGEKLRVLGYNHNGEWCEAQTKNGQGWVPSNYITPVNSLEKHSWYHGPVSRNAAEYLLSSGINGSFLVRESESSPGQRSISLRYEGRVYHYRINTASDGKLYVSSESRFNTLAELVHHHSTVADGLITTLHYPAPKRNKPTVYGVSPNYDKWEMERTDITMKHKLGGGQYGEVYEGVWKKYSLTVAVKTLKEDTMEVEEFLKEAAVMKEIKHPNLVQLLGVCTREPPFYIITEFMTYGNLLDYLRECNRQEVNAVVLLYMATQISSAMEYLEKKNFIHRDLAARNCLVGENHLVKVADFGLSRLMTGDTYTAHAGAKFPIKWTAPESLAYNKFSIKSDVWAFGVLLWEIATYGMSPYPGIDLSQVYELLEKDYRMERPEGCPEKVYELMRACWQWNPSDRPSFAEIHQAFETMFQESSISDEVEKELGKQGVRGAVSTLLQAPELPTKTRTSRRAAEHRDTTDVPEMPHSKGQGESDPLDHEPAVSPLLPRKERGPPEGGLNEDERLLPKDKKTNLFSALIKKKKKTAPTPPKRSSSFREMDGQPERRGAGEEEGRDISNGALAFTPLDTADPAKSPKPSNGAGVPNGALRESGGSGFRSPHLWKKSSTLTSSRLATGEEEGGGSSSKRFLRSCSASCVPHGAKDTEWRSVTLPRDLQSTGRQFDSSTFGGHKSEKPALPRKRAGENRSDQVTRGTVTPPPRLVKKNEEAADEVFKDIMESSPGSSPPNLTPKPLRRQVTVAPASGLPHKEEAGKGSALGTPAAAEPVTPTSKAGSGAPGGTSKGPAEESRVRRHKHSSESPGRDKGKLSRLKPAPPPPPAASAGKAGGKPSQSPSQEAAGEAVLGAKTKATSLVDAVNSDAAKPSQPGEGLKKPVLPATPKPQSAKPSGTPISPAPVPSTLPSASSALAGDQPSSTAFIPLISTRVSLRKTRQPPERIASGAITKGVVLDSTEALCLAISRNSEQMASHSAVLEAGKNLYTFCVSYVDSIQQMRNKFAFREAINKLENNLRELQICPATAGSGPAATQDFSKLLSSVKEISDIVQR
T1 sequence (P35968 whole entry): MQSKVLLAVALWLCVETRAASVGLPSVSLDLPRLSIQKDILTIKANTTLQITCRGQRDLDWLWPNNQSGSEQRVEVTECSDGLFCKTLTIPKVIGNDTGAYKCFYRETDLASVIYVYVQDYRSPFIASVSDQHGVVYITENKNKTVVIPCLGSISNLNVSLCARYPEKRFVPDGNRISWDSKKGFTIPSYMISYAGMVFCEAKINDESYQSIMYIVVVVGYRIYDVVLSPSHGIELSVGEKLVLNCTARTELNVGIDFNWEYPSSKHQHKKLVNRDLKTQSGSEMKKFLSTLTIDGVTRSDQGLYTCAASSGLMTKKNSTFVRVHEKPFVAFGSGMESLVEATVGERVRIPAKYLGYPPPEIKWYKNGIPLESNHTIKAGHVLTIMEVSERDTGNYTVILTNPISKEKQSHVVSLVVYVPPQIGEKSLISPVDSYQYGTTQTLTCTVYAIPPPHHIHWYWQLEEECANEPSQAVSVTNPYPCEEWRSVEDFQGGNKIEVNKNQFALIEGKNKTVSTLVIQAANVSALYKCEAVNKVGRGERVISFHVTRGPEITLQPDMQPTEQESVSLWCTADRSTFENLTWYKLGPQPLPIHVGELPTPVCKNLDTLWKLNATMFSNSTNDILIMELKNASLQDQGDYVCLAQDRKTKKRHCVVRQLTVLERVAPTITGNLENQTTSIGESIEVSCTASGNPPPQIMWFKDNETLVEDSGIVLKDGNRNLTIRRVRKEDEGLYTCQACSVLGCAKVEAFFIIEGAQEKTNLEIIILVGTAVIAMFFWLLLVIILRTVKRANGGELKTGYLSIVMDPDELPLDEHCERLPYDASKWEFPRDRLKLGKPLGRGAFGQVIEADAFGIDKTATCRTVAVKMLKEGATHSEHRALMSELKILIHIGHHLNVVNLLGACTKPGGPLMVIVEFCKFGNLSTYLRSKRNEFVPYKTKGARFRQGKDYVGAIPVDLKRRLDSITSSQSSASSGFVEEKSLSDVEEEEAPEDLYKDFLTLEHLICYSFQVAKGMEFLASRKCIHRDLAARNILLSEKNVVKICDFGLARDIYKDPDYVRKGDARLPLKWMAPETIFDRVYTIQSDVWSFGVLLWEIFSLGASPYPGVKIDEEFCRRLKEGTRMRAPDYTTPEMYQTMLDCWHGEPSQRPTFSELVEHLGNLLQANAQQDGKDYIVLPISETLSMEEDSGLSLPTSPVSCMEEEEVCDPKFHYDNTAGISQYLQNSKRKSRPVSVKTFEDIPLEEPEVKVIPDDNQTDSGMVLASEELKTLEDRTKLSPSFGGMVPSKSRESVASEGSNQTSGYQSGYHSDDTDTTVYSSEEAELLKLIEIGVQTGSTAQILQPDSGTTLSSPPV

IC50 [1] [nM]	inhibition [2] [%]	IC50 [3] [nM]	Compound
> 1140			O=C1Nc2ccccc2O/C1=C\c1ccc(/C=C/C(=O)N2CCCC2)o1
	88.3		CN1C(=O)/C(=C/c2ccc(/C=C/C(=O)N3CCN(CCO)CC3)s2)Oc2ccccc21
> 1040			CN(C)CCNC(=O)/C=C/c1csc(/C=C2\Oc3ccccc3NC2=O)c1
	70.8		CN(C)CCNC(=O)/C=C/c1cccc(/C=C2\Oc3ccccc3NC2=O)c1
	76.7		O=C1Nc2ccccc2O/C1=C\c1ccc(/C=C/C(=O)N2CCN(CCO)CC2)o1
> 991			O=C(/C=C/c1ccc(/C=C2\Oc3ccccc3NC2=O)s1)NCc1ccccn1
1900	76.7	1480	CN1C(=O)/C(=C/c2ccc(/C=C/C(=O)NCc3cccnc3)s2)Oc2ccccc21

Further lines, the molecule ahead of its results:

Compound	IC50 [1] [nM]	inhibition [2] [%]	IC50 [3] [nM]
CN(C)CCNC(=O)/C=C/c1ccc(/C=C2\Oc3ccccc3N(C)C2=O)s1	820	83.9	
CN1C(=O)/C(=C/c2cccc(/C=C/C(=O)Nc3ccc(N4CCOCC4)cc3)c2)Oc2ccccc21		79.9	
CN1C(=O)/C(=C/c2ccc(/C=C/C(=O)N3CCCC3)s2)Oc2ccccc21		79.2	
O=C(/C=C/c1cccc(/C=C2\Oc3ccccc3NC2=O)c1)NCc1ccccn1	> 1010		
CN1C(=O)/C(=C/c2ccc(/C=C/C(=O)NCc3ccncc3)s2)Oc2ccccc21	1760	77.1	
O=C1Nc2ccccc2O/C1=C\c1cc(/C=C/C(=O)N2CCCC2)cs1	> 1090		
O=C(/C=C/c1ccc(/C=C2\Oc3ccccc3NC2=O)s1)Nc1ccc(N2CCOCC2)cc1	290		
